The subject of data set [1] is HCT-116. The data set is described as follows: Antitumor activity against human HCT116 cells xenografted in NCr-nu/nu mouse assessed as tumor inhibition rate measured on day 41and 44 at 15 mg/kg, iv once daily for 5 injections after 16 days of tumor cell transplantation. Type of data set: functional. Conditions: HCT-116, 384 h. A general note: Xenograft models place foreign cells or tissue in a host animal.

For data set [2], the system named is HCT-116. The data set is described as follows: Antiproliferative activity against human HCT116 cells assessed as growth inhibition after 24 to 72 hrs by MTS assay. Type of data set: functional.
A short description of data set [3]: Antiproliferative activity against HMEC assessed as growth inhibition after 24 to 72 hrs by MTS assay. Type of data set: cell-based. Conditions: human, HMEC cells. (Tetrazolium assays rely on reduction of a dye to a coloured formazan, in cell work by metabolically active cells.)
Data set [4] is described as follows: Antiproliferative activity against NHLF assessed as growth inhibition after 24 to 72 hrs by MTS assay. Conditions: human, NHLF cells.
Data set [5] in a line: Antiproliferative activity against HUVEC assessed as growth inhibition after 24 to 72 hrs by MTS assay. Conditions: human, HUVEC cells. Type of data set: cell-based.
Data set [6] is described as follows: Antiproliferative activity against NHDF assessed as growth inhibition after 24 to 72 hrs by MTS assay. Conditions: human, NHDF cells. Type of data set: cell-based.
For data set [7], the system named is HCT-116. The data set is described as follows: Antitumor activity against human HCT116 cells xenografted in NCr-nu/nu mouse assessed as tumor weight reduction at 1.5 to 3 mg/kg, iv once every 4 days for 3 injections after 16 days of tumor cell transplantation. The format is functional, organism-based.
The nature of data set [8]: Therapeutic index, ratio of GI50 for human HCT116 cells to GI50 for HUVEC. Type of data set: cell-based, HCT-116. Conditions: HCT116 cells and HUVEC cells, read-out: RatioGI50.
The test system of data set [9] is HCT-116. The data set is described as follows: Antitumor activity against human HCT116 cells xenografted in NCr-nu/nu mouse assessed as tumor weight reduction at 6 mg/kg, iv once every 4 days for 3 injections after 16 days of tumor cell transplantation. Type of data set: functional.
Data set [10] can be described thus: Therapeutic index, ratio of GI50 for human HCT116 cells to GI50 for NHLF. Type of data set: cell-based, HCT-116. Conditions: HCT116 cells and NHLF cells, read-out: RatioGI50.
The test system of data set [11] is Mus musculus. The data set is described as follows: Toxicity in mouse assessed as body weight loss at 0.03 to 3 mg/kg, iv once every 4 days for 3 injections. The arrangement: dose 0.03-3 mg/kg, route intravenous. Conditions: in vivo, 96 h. Type of data set: organism-based.
The subject of data set [12] is MDA-MB-231. The data set is described as follows: Antiproliferative activity against human MDA-MB-231 cells assessed as growth inhibition after 24 to 72 hrs by MTS assay. Type of data set: functional.
Data set [13] has as its system Mus musculus. The data set is described as follows: Toxicity in mouse assessed as death at 0.03 to 3 mg/kg, iv once every 4 days for 3 injections. The format is organism-based. The arrangement: dose 0.03-3 mg/kg, route intravenous. Conditions: in vivo, 96 h.
Data set [14] in a line: Half life in mouse serum. The format is ADME.
The test system of data set [15] is MCF7. The data set is described as follows: Antiproliferative activity against human MCF7 cells assessed as growth inhibition after 24 to 72 hrs by MTS assay. The format is functional.
Data set [16] can be described thus: Therapeutic index, ratio of GI50 for human HCT116 cells to GI50 for NHDF. Type of data set: cell-based, HCT-116. Conditions: HCT116 cells and NHDF cells, read-out: RatioGI50.
The nature of data set [17]: Therapeutic index, ratio of GI50 for human HCT116 cells to GI50 for HMEC. Type of data set: cell-based, HCT-116. Conditions: HCT116 cells and HMEC cells, read-out: RatioGI50.
Data set [18] relates to Mus musculus. The data set is described as follows: Toxicity in mouse assessed as body weight loss at 3 mg/kg, iv once every 4 days for 3 injections. The format is organism-based. The arrangement: dose 3 mg/kg, route intravenous. Conditions: in vivo, 96 h.
Data set [19] in a line: Plasma concentration in mouse at 6 mg/kg, iv after 30 mins. The format is ADME, organism-based. The arrangement: dose 6 mg/kg, route intravenous.
Data set [20] concerns Mus musculus. The data set is described as follows: Toxicity in mouse assessed as body weight loss at 1 mg/kg, iv once every 4 days for 3 injections. Type of data set: organism-based. Set-up: dose 1 mg/kg, route intravenous. Conditions: in vivo, 96 h.
Data set [21] can be described thus: Toxicity in mouse assessed as tolerated dose compound treated once daily for 5 consecutive days. The format is organism-based. Conditions: in vivo.
Data set [22] concerns Mus musculus. The data set is described as follows: Toxicity in mouse assessed as death at 0.5 mg/kg, iv led to the euthanization of mouse on day 9. The format is organism-based, NCr. The arrangement: dose 0.5 mg/kg, route intravenous. Conditions: in vivo.
Data set [23] deals with HCT-116. The data set is described as follows: Antitumor activity against human HCT116 cells xenografted in NCr-nu/nu mouse assessed as tumor inhibition rate measured on day 41 at 6 mg/kg, iv once every 4 days for 3 injections after 16 days of tumor cell transplantation. Type of data set: functional.
For data set [24], the system named is Mus musculus. The data set is described as follows: Toxicity in mouse assessed as death at >= 1.5 mg/kg, iv compound treated once daily for 5 consecutive days. The format is organism-based. The arrangement: dose 1.5 mg/kg, route intravenous. Conditions: in vivo.
Data set [25] has as its system Mus musculus. The data set is described as follows: Toxicity in mouse assessed as body weight loss at 0.5 mg/kg, iv led to the euthanization of mouse on day 9. Type of data set: organism-based. The arrangement: dose 0.5 mg/kg, route intravenous. Conditions: in vivo.
For data set [26], the system named is PC-3. The data set is described as follows: Antitumor activity against human PC3 cells xenografted in NCr-nu/nu mouse assessed as tumor weight reduction measured on day 22 at 1 mg/kg, iv once daily for 5 injections. The format is functional. Conditions: PC-3, 528 h.
Data set [27] is described as follows: Plasma concentration in mouse at 6 mg/kg, iv upto 4 hrs. Type of data set: ADME, organism-based. Set-up: dose 6 mg/kg, route intravenous.
In data set [28] the test system is A549. The data set is described as follows: Antiproliferative activity against human A549 cells assessed as growth inhibition after 24 to 72 hrs by MTS assay. Type of data set: functional.
Data set [29] deals with P388. The data set is described as follows: Antiproliferative activity against mouse P388 cells assessed as growth inhibition after 24 to 72 hrs by MTS assay. The format is functional.

Activity calls are given as the source filed them. The rule behind the calls is not given here. A value given as a limit tells only on which side of the number the result lay.

Consider `CC(=O)O[C@H]1C(=O)[C@@]2(C)[C@H]([C@H](OC(=O)c3ccccc3)[C@]3(O)C[C@H](OC(=O)[C@H](O)[C@@H](NC(=O)c4ccccc4)c4ccccc4)C(C)=C1C3(C)C)[C@]1(OC(C)=O)CO[C@@H]1C[C@@H]2O` [PACLITAXEL], for which the inhibition in vivo (usually how much of the control response was suppressed) at 15 mg/kg in data set [1] stood at 81%.
`COc1cccc2c1C(=O)c1c(O)c3c(c(O)c1C2=O)C[C@@](O)(C(=O)CO)C[C@@H]3O[C@H]1C[C@H](N)[C@H](O)[C@H](C)O1` [DOXORUBICIN]: the GI50 (in general, the concentration giving 50% growth inhibition) came to 70 nM in data set [2]; 276 nM in [3]; 223 nM in data set [4]; 109 nM in data set [5]; 462 nM in [6].
In the case of `CC(=O)O[C@@H](C)/C=C\C(=O)N[C@@H]1C[C@H](C)[C@H](C/C=C(C)/C=C/[C@H]2OC(C)(C)C[C@@]3(CO3)[C@@H]2O)O[C@@H]1C`, the GI50 amounted to 0.07 nM in data set [2]; 0.11 nM in [3]; 0.91 nM in data set [4]; 0.07 nM in data set [12]; 0.06 nM in data set [5]; 0.02 nM in data set [15]. The GI50 in [6] is 0.44 nM. The outcome in [7] was inactive. For the same compound, the selectivity ratio in [8] was found to be 1; in data set [10], 2.7; in data set [16], 6; in [17], 1.6. For the same compound, the inhibition in vivo at 6 mg/kg in data set [9] turned out to be 24%. The Activity entry in data set [11] and in [13] was “Non-toxic” throughout. The half-life (as a rule, the time in which the quantity being followed falls by half) in data set [14] was 2 h.
Consider `CC(/C=C/[C@H]1OC(C)(C)C[C@@]2(CO2)[C@@H]1O)=C\C[C@@H]1O[C@H](C)[C@H](NC(=O)/C=C\[C@H](C)OC(=O)N2CCOCC2)C[C@@H]1C`, for which the Activity in data set [18] is given as 11%; in data set [20] it was 10%; in [22], “Toxic”; in [13], “Non-toxic”; in [24] it was “Toxic”; in [25], 6%. Also, the concentration at 0.5 h in data set [19] was less than 10 ng/mL. Further, the result in data set [7] was inactive. Moreover, the MTD (commonly the highest dose tested that stayed within the study's limit of toxicity) at 5 days in data set [21] worked out at 0.5 mg/kg. For the same compound, the half-life in data set [14] was 13 h. Also, the inhibition in vivo at 6 mg/kg in [23] was 41%. For the same compound, the inhibition in vivo at 1 mg/kg in data set [26] worked out at 26%.
For `CO[C@@H]1[C@@H](/C=C/C(C)=C/C[C@@H]2O[C@H](C)[C@H](NC(=O)/C=C\[C@H](C)OC(=O)N3CCOCC3)C[C@@H]2C)OC(C)(C)C[C@@]12CO2`, the GI50 in data set [2] amounted to 1.4 nM; in [3], 9 nM; in [4], 12 nM; in data set [12] it was 1.1 nM; in data set [5], 4 nM; in data set [15], 0.4 nM. In addition, the GI50 in data set [6] is 39 nM. The concentration at 4 h in [27] was less than 10 ng/mL. Moreover, the selectivity ratio came to 1.5 in [8], 4.6 in [10], 15 in data set [16] and 3.5 in [17].
Consider `CC(=O)O[C@@H](C)/C=C\C(=O)N[C@@H]1C[C@H](C)[C@H](C/C=C(C)/C=C/[C@H]2O[C@](C)(O)C[C@@]3(CO3)[C@@H]2O)O[C@@H]1C`, for which the GI50 in data set [2], in data set [28], in data set [29] and in [15] was 1 nM in each case.
